The source of these data is ChEMBL document CHEMBL1126955, “Substituted thiopyrano[2,3,4-c,d]indoles as potent, selective, and orally active inhibitors of 5-lipoxygenase. Synthesis and biological evaluation of L-691,816” (J Med Chem, 1993).

The term bioavailability denotes the share of a dose that reaches the circulation, judged against a reference dose that is usually intravenous. In general, IC50 refers to the midpoint of a concentration-inhibition curve. Broadly, the kinact is the maximal first-order rate at which the target is inactivated. As usually defined, the ED50 is the dose at which the effect has come halfway, by size or by number of responders. The Tmax is the time at which the peak concentration occurs. As a reminder, the inhibition is the drop in the measured response relative to a control, in per cent. Broadly, the Cmax is the maximum level reached in the sampled fluid or tissue. What is called Inhibition is the share of the control response that was lost under treatment. By inhibition in vivo is commonly meant the drop in the measured response relative to a control, in per cent.

Series [1] can be described thus: Bioavailability in rat (dose 20 mg/kg p.o. in 1% methocel, and 5 mg/kg i.v. in PEG400). In kind it is ADME, organism-based. Conditions: in vivo, po.
For series [2], the species on record is Homo sapiens. In words: Tested for inhibition of leukotriene B4 synthesis in human PMN leukocytes at 5*10e5 cells/mL concentration. The series is classed as functional, cell-based.
Series [3] concerns Monkey. Description: Changes in dynamic compliance after administration of 0.3 mg/kg in squirrel monkey. In kind it is functional.
For series [4], the system named is Monkey. In words: Changes in airway resistance after administration of 1 mg/kg in squirrel monkey. The series is classed as functional.
For series [5], the target named is T1, Polyunsaturated fatty acid 5-lipoxygenase (Rattus norvegicus, UniProt P12527).
T1 sequence (P12527 whole entry): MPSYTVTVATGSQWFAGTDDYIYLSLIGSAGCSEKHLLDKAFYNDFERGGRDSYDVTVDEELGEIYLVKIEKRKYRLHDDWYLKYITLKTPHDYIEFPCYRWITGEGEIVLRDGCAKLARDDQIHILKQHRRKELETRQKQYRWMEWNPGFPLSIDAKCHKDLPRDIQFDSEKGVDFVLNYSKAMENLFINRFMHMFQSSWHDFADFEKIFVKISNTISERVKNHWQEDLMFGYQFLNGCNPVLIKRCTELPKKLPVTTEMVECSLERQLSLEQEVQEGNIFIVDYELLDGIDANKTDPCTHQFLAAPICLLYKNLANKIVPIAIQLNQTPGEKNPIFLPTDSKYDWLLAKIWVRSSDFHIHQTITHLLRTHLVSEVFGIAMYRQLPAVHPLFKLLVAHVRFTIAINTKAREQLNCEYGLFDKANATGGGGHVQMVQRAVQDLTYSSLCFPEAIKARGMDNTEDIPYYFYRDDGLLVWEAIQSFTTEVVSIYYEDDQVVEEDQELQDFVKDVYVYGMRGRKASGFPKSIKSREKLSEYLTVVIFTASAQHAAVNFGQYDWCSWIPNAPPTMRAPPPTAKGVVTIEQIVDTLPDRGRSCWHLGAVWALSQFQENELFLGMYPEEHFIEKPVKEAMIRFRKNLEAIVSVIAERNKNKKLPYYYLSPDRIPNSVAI
Description: Tested for inhibition of 5-HPETE production by rat 5-LO; value ranges from 16-36 nM.

A short description of series [6]: Rate of enzyme inactivation for the compound was determined.
Series [7] deals with T2, Polyunsaturated fatty acid 5-lipoxygenase (Homo sapiens, UniProt P09917).
T2 sequence (P09917 whole entry): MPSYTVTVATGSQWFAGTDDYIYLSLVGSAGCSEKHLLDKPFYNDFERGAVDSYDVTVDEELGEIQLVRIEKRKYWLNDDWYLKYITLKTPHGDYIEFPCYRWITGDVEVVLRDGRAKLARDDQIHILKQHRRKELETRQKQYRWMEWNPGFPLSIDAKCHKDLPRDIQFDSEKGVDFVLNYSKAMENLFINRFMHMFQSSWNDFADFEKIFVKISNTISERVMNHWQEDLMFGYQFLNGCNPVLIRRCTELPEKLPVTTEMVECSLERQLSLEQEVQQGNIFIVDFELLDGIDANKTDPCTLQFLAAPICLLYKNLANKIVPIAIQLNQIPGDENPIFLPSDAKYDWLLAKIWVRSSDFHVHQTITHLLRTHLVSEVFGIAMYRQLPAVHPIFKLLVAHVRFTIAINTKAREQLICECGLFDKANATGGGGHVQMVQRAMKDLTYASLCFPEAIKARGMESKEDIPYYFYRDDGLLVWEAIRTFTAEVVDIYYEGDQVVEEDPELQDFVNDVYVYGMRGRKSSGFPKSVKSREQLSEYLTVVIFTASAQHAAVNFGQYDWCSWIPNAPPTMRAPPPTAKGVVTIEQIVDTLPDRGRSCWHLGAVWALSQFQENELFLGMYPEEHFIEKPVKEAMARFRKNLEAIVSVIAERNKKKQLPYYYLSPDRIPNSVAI
In words: Tested for inhibition of 5-HPETE production by human 5-LO.

The species entered for series [8] is Rattus norvegicus. Description: Tested for antigen-induced dyspnea in hyperreactive rat model (2 hours pretreatment). The series is classed as functional.
The species entered for series [9] is Rattus norvegicus. Description: Tested for inhibition of leukotriene B4 in rat pleurisy model (8 hours pretreatment). The series is classed as functional.
Series [10] deals with T3, Arachidonate 12-lipoxygenase (Sus scrofa, UniProt P16469).
T3 sequence (P16469 whole entry): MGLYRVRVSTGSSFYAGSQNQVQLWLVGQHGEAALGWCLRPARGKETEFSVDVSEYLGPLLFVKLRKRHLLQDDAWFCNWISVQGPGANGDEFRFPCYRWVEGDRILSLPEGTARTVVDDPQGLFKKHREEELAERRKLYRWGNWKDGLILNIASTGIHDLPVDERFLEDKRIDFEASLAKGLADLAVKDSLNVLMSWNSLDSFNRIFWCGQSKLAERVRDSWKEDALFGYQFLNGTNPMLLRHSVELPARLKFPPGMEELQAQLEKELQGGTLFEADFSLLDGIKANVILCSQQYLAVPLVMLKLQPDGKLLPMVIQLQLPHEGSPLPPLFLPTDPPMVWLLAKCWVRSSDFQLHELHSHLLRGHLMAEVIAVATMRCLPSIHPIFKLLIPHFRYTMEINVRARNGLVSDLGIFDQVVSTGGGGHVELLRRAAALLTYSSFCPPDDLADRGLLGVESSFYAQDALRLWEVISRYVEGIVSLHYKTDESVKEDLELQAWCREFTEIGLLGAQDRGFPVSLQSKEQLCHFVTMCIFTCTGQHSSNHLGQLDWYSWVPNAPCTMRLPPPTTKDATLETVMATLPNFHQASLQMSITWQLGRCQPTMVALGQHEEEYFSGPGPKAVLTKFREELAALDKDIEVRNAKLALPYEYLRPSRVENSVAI
Description: Tested for inhibition against porcine 12-LO.

Series [11] can be described thus: Maximum time taken for compound to reach peak concentration in rat plasma. The series is classed as ADME, organism-based.
In series [12] the target is Prostaglandin G/H synthase (cyclooxygenase) (Ovis aries) (UniProt P05979+P79208). In words: Tested for inhibition against ram seminal vesicle Prostaglandin G/H synthase at a concentration of 10 uM. In kind it is tissue-based.
Series [13] in a line: Peak concentration in rat plasma was determined. In kind it is ADME, organism-based.
Series [14] relates to Monkey. In words: Changes in dynamic compliance after administration of 1 mg/kg in squirrel monkey. The series is classed as functional.
The species named for series [15] is Rattus norvegicus. In words: Tested for percent inhibition of dyspnea duration in hyperreactive rat model. The series is classed as functional.
For series [16], the target named is T1, Polyunsaturated fatty acid 5-lipoxygenase. Description: In vitro test for inhibition of 5-lipoxygenase in cell-free preparations from rat PMN leukocytes.
The species named for series [17] is Rattus norvegicus. In words: Tested for ex-vivo inhibition of leukotriene B4 biosynthesis in rat whole blood. The series is classed as functional, organism-based.
The subject of series [18] is Monkey. In words: Changes in airway resistance after administration of 0.3 mg/kg in squirrel monkey. In kind it is functional.
In series [19] the target is T2, Polyunsaturated fatty acid 5-lipoxygenase. Description: In vitro inhibition of LTB4 biosynthesis in [Ca(2+)]-ionophore-activated human polymorphonuclear leukocytes. In kind it is functional.
The subject of series [20] is Rattus norvegicus. Description: Tested for percent inhibition of dyspnea duration in hyperreactive rat model after peroral administration of 5 mg/kg. Conditions: route oral. The series is classed as functional.
In series [21] the test system is Monkey. In words: Changes in dynamic compliance after administration of 0.3 mg/kg in squirrel monkey (not significant). The series is classed as functional.
Series [22] is filed under the species Rattus norvegicus. In words: Tested for antigen-induced dyspnea in hyperreactive rat model (2 hr pretreatment). The series is classed as functional.
Series [23] can be described thus: Maximum time taken for compound to reach peak concentration in rat plasma; value ranges from 1-2 hrs. The series is classed as ADME, organism-based.
Series [24] is filed under the species Homo sapiens. Description: Tested in vitro for the inhibition of LTB4 biosynthesis in [Ca(2+)]-ionophore-activated human polymorphonuclear leukocytes (Result of a single titration). In kind it is functional.

Sequence of Prostaglandin G/H synthase (cyclooxygenase) (Ovis aries) (P05979 whole entry, looked up): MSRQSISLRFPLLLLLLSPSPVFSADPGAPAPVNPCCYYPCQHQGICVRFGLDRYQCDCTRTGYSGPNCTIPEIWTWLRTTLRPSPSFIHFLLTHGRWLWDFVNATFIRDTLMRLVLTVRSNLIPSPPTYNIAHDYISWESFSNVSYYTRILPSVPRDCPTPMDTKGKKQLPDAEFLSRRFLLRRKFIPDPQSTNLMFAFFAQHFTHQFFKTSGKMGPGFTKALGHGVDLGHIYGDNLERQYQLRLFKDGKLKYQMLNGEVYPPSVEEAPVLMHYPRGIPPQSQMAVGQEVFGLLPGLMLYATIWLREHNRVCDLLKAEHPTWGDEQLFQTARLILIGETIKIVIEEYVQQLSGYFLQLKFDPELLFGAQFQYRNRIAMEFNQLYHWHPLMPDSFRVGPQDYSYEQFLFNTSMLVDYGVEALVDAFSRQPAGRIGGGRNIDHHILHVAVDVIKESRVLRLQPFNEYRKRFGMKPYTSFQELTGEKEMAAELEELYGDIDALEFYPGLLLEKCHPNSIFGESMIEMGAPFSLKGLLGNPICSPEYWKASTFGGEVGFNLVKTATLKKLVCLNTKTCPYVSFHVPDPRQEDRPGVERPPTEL
Sequence of Prostaglandin G/H synthase (cyclooxygenase) (Ovis aries) (P79208 whole entry, looked up): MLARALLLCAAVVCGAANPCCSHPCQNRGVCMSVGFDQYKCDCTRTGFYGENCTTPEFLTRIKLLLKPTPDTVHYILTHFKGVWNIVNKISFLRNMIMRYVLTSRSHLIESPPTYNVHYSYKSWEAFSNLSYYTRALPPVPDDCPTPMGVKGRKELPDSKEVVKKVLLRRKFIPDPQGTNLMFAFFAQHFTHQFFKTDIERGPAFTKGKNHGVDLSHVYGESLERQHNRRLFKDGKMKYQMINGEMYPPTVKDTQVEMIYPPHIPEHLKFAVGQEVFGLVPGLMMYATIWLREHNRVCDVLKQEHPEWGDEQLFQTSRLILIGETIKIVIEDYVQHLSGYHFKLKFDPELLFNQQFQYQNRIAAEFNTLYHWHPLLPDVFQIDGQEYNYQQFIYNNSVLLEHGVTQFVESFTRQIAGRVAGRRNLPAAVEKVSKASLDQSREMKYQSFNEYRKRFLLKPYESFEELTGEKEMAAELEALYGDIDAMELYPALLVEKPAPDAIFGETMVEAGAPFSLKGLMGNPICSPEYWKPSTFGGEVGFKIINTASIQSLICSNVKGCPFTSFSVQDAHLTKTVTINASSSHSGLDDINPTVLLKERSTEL

In the case of `CC1Cc2c(OCc3ccc(-c4ccccc4)cn3)ccc3c2c(c(CC(C)(C)Cc2nnn[nH]2)n3Cc2ccc(Cl)cc2)S1` (configuration not stated), the bioavailability in [1] was found to be 40%. Moreover, the IC50 in series [2] came to 0.01 µM; in series [5] it was 0.016 µM; in series [7] it was 0.075 µM; in [10], 2.8 µM; in [16] it was 0.017 µM; in series [17] it was 1.5 µM. This compound came in with an IC50 in series [19] of 0.008 µM. Moreover, the Cdyn is on record as -11.2% in series [3] and -9.2% in series [14]. For the same compound, the RL in series [4] was 12.6%; in [18], 17.5%. Also, in series [6], the kinact is 0.009 s⁻¹. Moreover, the ED50 in series [8] amounted to 0.1 mg/kg; in series [9], 1.9 mg/kg. The Tmax in series [11] stood at 6 h. This compound also returned an inhibition in series [12] of 59%. This compound came in with a Cmax in [13] of 10 µM. The Inhibition in series [15] is 70%.

With `CC1Cc2c(OCc3ccc(-c4ccccc4)cn3)ccc3c2c(c(CC(C)(C)CC(=O)NS(C)(=O)=O)n3Cc2ccc(Cl)cc2)S1` (configuration not stated), the bioavailability in series [1] turned out to be 45%. For the same compound, the inhibition in vivo at 5 mg/kg in [20] was found to be 44%. For the same compound, the Tmax in series [11] was 4 h. In series [13], the Cmax came out at 12 µM. In addition, the values for the IC50 in series [16] and in series [19] were 0.036 µM and 0.011 µM, respectively.

For the compound `CC(C)(C)Sc1c(CC(C)(C)C(=O)O)n(Cc2ccc(Cl)cc2)c2ccc(OCc3ccc4ccccc4n3)cc12` [QUIFLAPON], in series [21], the Cdyn is recorded as 46%. The ED50 in series [22] stood at 0.16 mg/kg. For the same compound, the RL in series [18] is reported as 44%.

The compound `CC1Cc2c(OCc3ccc(-c4ccccc4)cn3)ccc3c2c(c(CC(C)(C)CC(=O)O)n3Cc2ccc(Cl)cc2)S1` (configuration not stated) registered a bioavailability in [1] of 27%. Further, the inhibition in vivo at 5 mg/kg in series [20] came to 54%. Further, in [11], the Tmax amounted to 2 h. This compound registered a Cmax in [13] of 4 µM. Also, the IC50 in series [16] is 0.02 µM; in [19] it was 0.012 µM.

On to `CC1Cc2c(CCc3ccc(-c4ccccc4)cn3)ccc3c2c(c(CC(C)(C)Cc2nnn[nH]2)n3Cc2ccc(Cl)cc2)S1` (configuration not stated), for which, in series [1], the bioavailability is 36%. For the same compound, in series [23], the Tmax stood at 1 h. This compound also displayed a Cmax in [13] of 8 µM. Also, the Inhibition in series [15] amounted to 37%. For the same compound, the IC50 in series [16] amounted to 0.016 µM; in series [19], 0.003 µM.

Consider `CC1Cc2c(OCc3ccc(C(=O)O)cn3)ccc3c2c(c(CC(C)(C)C(=O)O)n3Cc2ccc(Cl)cc2)S1` (configuration not stated), for which the IC50 in series [24] and in series [16] was > 2 µM in each case.
